In brackets after ≈: the same amount, converted by molar mass. Marks after values point to notes of the source that are not given here.
Tests used:
[1] = Solubility studies in water, FaSSIF, FeSSIF and FaSSGF (excess solids in 5 mL medium at 37° C., HPLC; pH, XRPD and NMR of remaining material); type: physicochemical; details: for solubility at 30 min / solubility at 120 min / solubility at 24 h: 37 °C, thermodynamic from solid; for pH: pH of solubility sample
Experimental: Simulated fluids were sourced from and prepared according to biorelevant.com using their FaSSIF/FeSSIF/FaSSGF Powder (v1, formerly known as SIF Powder). Samples were prepared by adding excess solids to 5 mL of medium at 37° C. Samples were pulled and filtered at 30 minutes, 120 minutes, and 24 hours and tested for solution concentration using the HPLC parameters described below in Table 13.
The pH of the samples at each timepoint was also measured; pH paper was used at 30 minutes and 120 minutes due to the small sample size, and a pH meter was used at 24 hours. The remaining material from all trials was analyzed by XRPD after 24 hours to determine if any polymorphic form changes had taken place. The remaining material from trials in water was analyzed by NMR after 24 hours to determine if disassociation had taken place.

[2] = Stability studies at 40° C./75% RH (HPLC); type: physicochemical; details: for stability / degradation over time: Time 0, 1 week, 2 weeks, 4 weeks
Experimental: Stability studies of compound A, Form B, Compound 1, Form B, Compound 2, Form A, Compound 3, Form B, and Compound 4, Form A was carried out at 40° C./75% RH. Samples were stored in loosely capped vials in a chamber containing a saturated NaCl solution to achieve approximately 75% RH within the chamber. The chamber was stored in a 40° C. oven. Samples were analyzed at Time 0, 1 week, 2 weeks, and 4 weeks using the HPLC parameters described above in Table 13.

[3] = FaSSGF, fassgf or other biorelevant, 30 minutes
[4] = FaSSGF, fassgf or other biorelevant, 120 minutes
[5] = FaSSGF, fassgf or other biorelevant, 24 hours

Question: What does the source list for `CC(C)c1cnn2c(N[C@@H]3CCc4[nH]c5ccccc5c4C3)nc(-c3cncc(F)c3)nc12` [Compound 2 Form A]?
Answer: solubility at 30 min [1, 3]: < 0.1 µg/mL; solubility at 120 min [1, 4]: < 0.1 µg/mL; solubility at 24 h [1, 5]: < 0.1 µg/mL; Solubility ([1]; FaSSIF, 37° C., 30 minutes): 78 µg/mL (≈ 177 µM); Solubility ([1]; FaSSIF, 37° C., 120 minutes): 40 µg/mL (≈ 90.6 µM); Solubility ([1]; FaSSIF, 37° C., 24 hours): 14 µg/mL (≈ 31.7 µM); Solubility ([1]; FeSSIF, 37° C., 30 minutes): 58 µg/mL (≈ 131 µM); Solubility ([1]; FeSSIF, 37° C., 120 minutes): 160 µg/mL (≈ 362 µM); Solubility ([1]; FeSSIF, 37° C., 24 hours): 120 µg/mL (≈ 272 µM); solubility at 24 hours in FeSSIF ([1]; FeSSIF, 37° C., 24 hours, comparison among the tested forms): highest solubility; pH ([1]; FaSSGF, 24 hours, pH meter): 1.2; pH ([1]; FaSSIF, 30 minutes, pH paper): 6; pH ([1]; FaSSIF, 120 minutes, pH paper): 6; pH ([1]; FaSSIF, 24 hours, pH meter): 5.0; pH ([1]; FeSSIF, 30 minutes, pH paper): 5; pH ([1]; FeSSIF, 120 minutes, pH paper): 5; pH ([1]; FeSSIF, 24 hours, pH meter): 4.7; pH ([1]; Water, 30 minutes, pH paper): 3.5; pH ([1]; Water, 120 minutes, pH paper): 4; pH ([1]; Water, 24 hours, pH meter): 2.9; solubility at 30 min ([1]; water, 30 minutes): < 0.1 µg/mL; solubility at 120 min ([1]; water, 120 minutes): < 0.1 µg/mL; solubility at 24 h ([1]; water, 24 hours): < 0.1 µg/mL; % Area ([2]; 1 Week, HPLC): 99.20 % Area; % Area ([2]; 2 Weeks, HPLC): 98.30 % Area; % Area ([2]; 4 Weeks, HPLC): 98.58 % Area; stability / degradation over time ([2]; HPLC): fairly stable; % Area ([2]; Time 0, HPLC): 99.87 % Area; loss of area over four weeks ([2]; four weeks, HPLC): ~1.5 % area

Question: What does the source list for `CC(C)c1cnn2c(N[C@@H]3CCc4[nH]c5ccccc5c4C3)nc(-c3cncc(F)c3)nc12` [Compound A Form B, (3R)—N-[2-(5-fluoro-3-pyridyl)-8-isopropyl-pyrazolo[1,5-a][1,3,5]triazin-4-yl]-2,3,4,9-tetrahydro-1H-carbazol-3-amine]?
Answer: Solubility ([1]; FaSSGF, 37° C., 30 minutes): <0.1 µg/mL; Solubility ([1]; FaSSGF, 37° C., 120 minutes): <0.1 µg/mL; Solubility ([1]; FaSSGF, 37° C., 24 hours): <0.1 µg/mL; Solubility ([1]; FaSSIF, 37° C., 30 minutes): 4.9 µg/mL (≈ 11.1 µM); Solubility ([1]; FaSSIF, 37° C., 120 minutes): 11 µg/mL (≈ 24.9 µM); Solubility ([1]; FaSSIF, 37° C., 24 hours): 9.5 µg/mL (≈ 21.5 µM); Solubility ([1]; FeSSIF, 37° C., 30 minutes): <0.1 µg/mL; Solubility ([1]; FeSSIF, 37° C., 120 minutes): 27 µg/mL (≈ 61.2 µM); Solubility ([1]; FeSSIF, 37° C., 24 hours): 21 µg/mL (≈ 47.6 µM); Solubility ([1]; Water, 37° C., 30 minutes): <0.1 µg/mL; Solubility ([1]; Water, 37° C., 120 minutes): <0.1 µg/mL; Solubility ([1]; Water, 37° C., 24 hours): <0.1 µg/mL; pH ([1]; FaSSIF, 30 minutes, pH paper): 6; pH ([1]; FaSSIF, 120 minutes, pH paper): 6; pH ([1]; FaSSIF, 24 hours, pH meter): 6.4; pH ([1]; FeSSIF, 30 minutes, pH paper): 5; pH ([1]; FeSSIF, 120 minutes, pH paper): 5; pH ([1]; FeSSIF, 24 hours, pH meter): 4.8; pH ([1]; Water, 120 minutes, pH paper): 4.5; pH ([1]; Water, 24 hours, pH meter): 7.7; % Area ([2]; 1 Week, HPLC): 99.22 % Area; % Area ([2]; 2 Weeks, HPLC): 99.05 % Area; % Area ([2]; 4 Weeks, HPLC): 99.58 % Area; stability / degradation over time ([2]; HPLC): equally stable; % Area ([2]; Time 0, HPLC, 1 mg/mL): 99.62* % Area

Question: With `CC(C)c1cnn2c(N[C@@H]3CCc4[nH]c5ccccc5c4C3)nc(-c3cncc(F)c3)nc12.CCS(=O)(=O)O` [Compound 1 Form B] as the molecule, how does the solubility at 30 min [1, 3] read?
Answer: < 0.1 µg/mL

Question: And the solubility at 120 min [1, 4]?
Answer: < 0.1 µg/mL

Question: What about the solubility at 24 h [1, 5] of the same molecule?
Answer: < 0.1 µg/mL

Question: And the solubility at 30 min ([1]; FaSSIF, 30 minutes)?
Answer: 45 µg/mL

Question: What about the solubility at 120 min ([1]; FaSSIF, 120 minutes) of the same molecule?
Answer: 34 µg/mL

Question: What about the solubility at 24 h ([1]; FaSSIF, 24 hours) of the same molecule?
Answer: 18 µg/mL

Question: What about the solubility at 30 min ([1]; FeSSIF, 30 minutes) of the same molecule?
Answer: 58 µg/mL

Question: And the solubility at 120 min ([1]; FeSSIF, 120 minutes)?
Answer: 56 µg/mL

Question: What about the solubility at 24 h ([1]; FeSSIF, 24 hours) of the same molecule?
Answer: 63 µg/mL

Question: What about the pH ([1]; FaSSGF, 30 minutes, pH paper) of the same molecule?
Answer: 1.5

Question: And the pH ([1]; FaSSGF, 120 minutes, pH paper)?
Answer: 1.5

Question: What about the pH ([1]; FaSSGF, 24 hours, pH meter) of the same molecule?
Answer: 1.2

Question: What about the pH ([1]; FaSSIF, 30 minutes, pH paper) of the same molecule?
Answer: 6

Question: What about the pH ([1]; FaSSIF, 120 minutes, pH paper) of the same molecule?
Answer: 6

Question: What about the pH ([1]; FaSSIF, 24 hours, pH meter) of the same molecule?
Answer: 6.2

Question: What about the pH ([1]; FeSSIF, 30 minutes, pH paper) of the same molecule?
Answer: 5

Question: And the pH ([1]; FeSSIF, 120 minutes, pH paper)?
Answer: 5

Question: And the pH ([1]; FeSSIF, 24 hours, pH meter)?
Answer: 4.8

Question: And the pH ([1]; Water, 30 minutes, pH paper)?
Answer: 4.5

Question: What about the pH ([1]; Water, 120 minutes, pH paper) of the same molecule?
Answer: 4.5

Question: What about the pH ([1]; Water, 24 hours, pH meter) of the same molecule?
Answer: 3.4

Question: And the solubility at 30 min ([1]; water, 30 minutes)?
Answer: < 0.1 µg/mL

Question: What about the solubility at 120 min ([1]; water, 120 minutes) of the same molecule?
Answer: < 0.1 µg/mL

Question: What about the solubility at 24 h ([1]; water, 24 hours) of the same molecule?
Answer: < 0.1 µg/mL

Question: And the “% Area” value ([2]; 1 Week, HPLC)?
Answer: 99.59 % Area

Question: And the “% Area” value ([2]; 2 Weeks, HPLC)?
Answer: 99.53 % Area

Question: And the “% Area” value ([2]; 4 Weeks, HPLC)?
Answer: 99.46 % Area

Question: And the “stability / degradation over time” value ([2]; HPLC)?
Answer: equally stable

Question: And the “% Area” value ([2]; Time 0, HPLC)?
Answer: 99.90 % Area

Reference: US12162884B2, “Solid forms of (R)-N-(2-(5-fluoropyridin-3-yl)-8-isopropylpyrazolo[1,5-a] [1,3,5]triazin-4-yl)-2,3,4,9-tetrahydro-1H-carbazol-3-amine as aryl hydrocarbon receptor (AHR) inhibitors” (Ikena Oncology, Inc., priority 2019, dated 2024)
